Where two headings read alike, the source gives them in different places.
Key:
Experiment in all cases: selectivity profiling in a panel of 340 wild-type kinases (Reaction Biology Europe)
Assay type in all cases: binding
340 wild-type kinases [1] = molecular target: T1, 340 wild-type kinases (Homo sapiens, UniProt Q9P286)
T1 construct: purchased Reaction Biology Europe

340 wild-type kinases [2] = molecular target: T2, 340 wild-type kinases (Homo sapiens, UniProt Q9Y5S2)
T2 construct: purchased Reaction Biology Europe

340 wild-type kinases [3] = molecular target: T3, 340 wild-type kinases (Homo sapiens, UniProt P19525)
T3 construct: purchased Reaction Biology Europe

340 wild-type kinases [4] = molecular target: T4, 340 wild-type kinases (Homo sapiens, UniProt Q9UEE5)
T4 construct: purchased Reaction Biology Europe
T4 sequence (Q9UEE5 1-414): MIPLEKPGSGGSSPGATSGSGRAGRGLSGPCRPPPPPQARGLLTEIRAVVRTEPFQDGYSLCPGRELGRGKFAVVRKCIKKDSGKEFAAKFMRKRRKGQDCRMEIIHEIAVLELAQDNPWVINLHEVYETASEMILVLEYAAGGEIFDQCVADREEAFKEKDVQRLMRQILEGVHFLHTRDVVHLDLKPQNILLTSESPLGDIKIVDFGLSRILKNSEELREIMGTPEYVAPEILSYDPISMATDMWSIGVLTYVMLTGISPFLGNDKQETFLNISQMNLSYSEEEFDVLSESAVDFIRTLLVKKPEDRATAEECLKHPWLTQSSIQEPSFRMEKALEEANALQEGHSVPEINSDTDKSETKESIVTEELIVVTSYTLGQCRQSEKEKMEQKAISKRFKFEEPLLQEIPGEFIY

340 wild-type kinases [5] = molecular target: T5, 340 wild-type kinases (Homo sapiens, UniProt O43293)
T5 construct: purchased Reaction Biology Europe

340 wild-type kinases [6] = molecular target: T6, 340 wild-type kinases (Homo sapiens, UniProt O15264)
T6 construct: purchased Reaction Biology Europe
T6 sequence (O15264 1-365): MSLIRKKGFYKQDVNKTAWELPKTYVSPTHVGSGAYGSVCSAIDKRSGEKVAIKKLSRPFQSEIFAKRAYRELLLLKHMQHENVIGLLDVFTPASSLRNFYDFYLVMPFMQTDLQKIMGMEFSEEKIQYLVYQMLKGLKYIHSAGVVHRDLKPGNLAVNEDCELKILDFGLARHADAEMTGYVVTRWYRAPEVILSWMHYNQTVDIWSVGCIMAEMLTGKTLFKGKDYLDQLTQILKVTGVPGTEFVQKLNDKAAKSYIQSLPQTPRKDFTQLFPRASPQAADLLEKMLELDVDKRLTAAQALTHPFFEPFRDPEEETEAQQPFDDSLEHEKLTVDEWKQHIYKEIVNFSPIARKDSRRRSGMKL

340 wild-type kinases [7] = molecular target: T7, 340 wild-type kinases (Homo sapiens, UniProt Q02763)
T7 construct: purchased Reaction Biology Europe

340 wild-type kinases [8] = molecular target: T8, 340 wild-type kinases (Homo sapiens, UniProt P08069)
T8 construct: purchased Reaction Biology Europe

340 wild-type kinases [9] = settings: for residual activity: RAF1 YDYD
340 wild-type kinases [10] = molecular target: T9, 340 wild-type kinases (Homo sapiens, UniProt Q96KB5)
T9 construct: purchased Reaction Biology Europe
T9 sequence (Q96KB5 1-322): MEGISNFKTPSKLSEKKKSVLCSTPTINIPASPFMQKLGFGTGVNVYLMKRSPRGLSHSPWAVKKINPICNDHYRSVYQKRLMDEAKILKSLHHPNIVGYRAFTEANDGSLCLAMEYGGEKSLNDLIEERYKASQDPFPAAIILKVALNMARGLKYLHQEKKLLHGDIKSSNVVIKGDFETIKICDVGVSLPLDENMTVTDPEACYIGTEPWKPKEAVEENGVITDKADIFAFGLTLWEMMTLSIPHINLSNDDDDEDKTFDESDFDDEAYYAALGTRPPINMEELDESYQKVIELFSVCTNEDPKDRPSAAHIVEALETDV

340 wild-type kinases [11] = molecular target: T10, 340 wild-type kinases (Homo sapiens, UniProt Q9Y2K2)
T10 construct: purchased Reaction Biology Europe

340 wild-type kinases [12] = molecular target: T11, 340 wild-type kinases (Homo sapiens, UniProt P11362)
T11 construct: purchased Reaction Biology Europe

340 wild-type kinases [13] = molecular target: T12, 340 wild-type kinases (Homo sapiens, UniProt P05129)
T12 construct: purchased Reaction Biology Europe

T3 sequence (P19525 whole entry): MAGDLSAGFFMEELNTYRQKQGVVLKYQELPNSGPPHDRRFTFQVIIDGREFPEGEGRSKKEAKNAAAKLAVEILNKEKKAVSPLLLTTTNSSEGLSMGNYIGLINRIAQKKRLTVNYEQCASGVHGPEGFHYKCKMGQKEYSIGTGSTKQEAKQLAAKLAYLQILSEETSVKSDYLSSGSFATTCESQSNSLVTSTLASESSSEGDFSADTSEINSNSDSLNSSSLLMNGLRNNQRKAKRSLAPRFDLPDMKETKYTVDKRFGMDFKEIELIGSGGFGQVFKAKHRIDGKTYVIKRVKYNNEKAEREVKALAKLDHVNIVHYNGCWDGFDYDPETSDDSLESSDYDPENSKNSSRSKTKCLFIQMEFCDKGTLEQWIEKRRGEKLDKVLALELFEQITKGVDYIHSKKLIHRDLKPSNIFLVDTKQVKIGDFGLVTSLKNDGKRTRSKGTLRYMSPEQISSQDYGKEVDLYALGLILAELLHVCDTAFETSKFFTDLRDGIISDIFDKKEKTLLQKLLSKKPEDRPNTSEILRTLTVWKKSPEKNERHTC
T1 sequence (Q9P286 whole entry): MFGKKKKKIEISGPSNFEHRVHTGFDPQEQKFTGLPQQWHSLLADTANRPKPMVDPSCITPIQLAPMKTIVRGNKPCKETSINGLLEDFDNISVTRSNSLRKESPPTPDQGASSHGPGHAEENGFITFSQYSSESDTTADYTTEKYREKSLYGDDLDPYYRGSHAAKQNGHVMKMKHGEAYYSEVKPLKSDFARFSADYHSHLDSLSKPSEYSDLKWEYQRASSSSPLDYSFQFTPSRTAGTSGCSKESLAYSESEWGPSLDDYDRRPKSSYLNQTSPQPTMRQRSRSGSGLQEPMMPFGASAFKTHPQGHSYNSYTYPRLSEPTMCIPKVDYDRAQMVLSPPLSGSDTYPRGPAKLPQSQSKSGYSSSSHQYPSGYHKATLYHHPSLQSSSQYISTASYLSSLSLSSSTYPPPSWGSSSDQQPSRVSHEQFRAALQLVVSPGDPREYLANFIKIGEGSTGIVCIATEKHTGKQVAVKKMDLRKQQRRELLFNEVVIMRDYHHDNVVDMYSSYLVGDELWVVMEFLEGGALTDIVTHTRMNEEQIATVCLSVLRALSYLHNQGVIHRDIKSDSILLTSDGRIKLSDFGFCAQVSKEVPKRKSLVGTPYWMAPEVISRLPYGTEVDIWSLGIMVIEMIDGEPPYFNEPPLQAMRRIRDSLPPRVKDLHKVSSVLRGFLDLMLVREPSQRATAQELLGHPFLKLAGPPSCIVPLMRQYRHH
T11 sequence (P11362 22-822): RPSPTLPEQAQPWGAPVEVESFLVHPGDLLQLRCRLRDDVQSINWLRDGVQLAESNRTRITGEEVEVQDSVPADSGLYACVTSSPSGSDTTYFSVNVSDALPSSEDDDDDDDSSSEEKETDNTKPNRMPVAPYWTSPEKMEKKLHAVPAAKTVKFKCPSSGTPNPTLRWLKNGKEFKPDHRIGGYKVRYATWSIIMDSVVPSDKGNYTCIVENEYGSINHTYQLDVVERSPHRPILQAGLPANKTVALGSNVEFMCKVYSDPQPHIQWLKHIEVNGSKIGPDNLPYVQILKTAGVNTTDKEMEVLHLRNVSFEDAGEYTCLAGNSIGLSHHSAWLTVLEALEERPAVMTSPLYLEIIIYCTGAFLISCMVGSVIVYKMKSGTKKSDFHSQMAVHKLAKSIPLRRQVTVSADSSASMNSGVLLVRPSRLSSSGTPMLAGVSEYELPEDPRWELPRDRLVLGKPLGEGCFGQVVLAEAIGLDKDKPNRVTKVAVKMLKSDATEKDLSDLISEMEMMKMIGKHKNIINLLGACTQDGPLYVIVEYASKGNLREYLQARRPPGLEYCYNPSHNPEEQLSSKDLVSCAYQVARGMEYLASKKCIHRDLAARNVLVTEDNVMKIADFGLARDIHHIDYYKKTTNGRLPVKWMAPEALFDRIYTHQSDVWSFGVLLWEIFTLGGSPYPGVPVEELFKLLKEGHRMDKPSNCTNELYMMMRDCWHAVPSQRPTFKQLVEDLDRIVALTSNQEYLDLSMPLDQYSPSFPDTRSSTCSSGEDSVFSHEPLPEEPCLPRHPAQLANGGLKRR
T5 sequence (O43293 whole entry): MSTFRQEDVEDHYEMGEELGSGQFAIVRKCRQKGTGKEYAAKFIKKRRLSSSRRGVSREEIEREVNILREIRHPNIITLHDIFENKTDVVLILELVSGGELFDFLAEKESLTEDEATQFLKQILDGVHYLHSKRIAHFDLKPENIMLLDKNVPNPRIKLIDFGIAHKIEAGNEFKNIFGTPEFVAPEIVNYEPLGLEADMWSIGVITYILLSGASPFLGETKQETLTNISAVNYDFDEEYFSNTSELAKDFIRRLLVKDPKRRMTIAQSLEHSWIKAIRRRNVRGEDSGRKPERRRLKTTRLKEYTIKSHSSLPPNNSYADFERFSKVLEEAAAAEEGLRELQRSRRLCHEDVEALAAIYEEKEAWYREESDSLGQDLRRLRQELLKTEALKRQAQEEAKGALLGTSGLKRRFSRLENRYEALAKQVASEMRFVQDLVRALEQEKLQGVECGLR
T7 sequence (Q02763 23-1124): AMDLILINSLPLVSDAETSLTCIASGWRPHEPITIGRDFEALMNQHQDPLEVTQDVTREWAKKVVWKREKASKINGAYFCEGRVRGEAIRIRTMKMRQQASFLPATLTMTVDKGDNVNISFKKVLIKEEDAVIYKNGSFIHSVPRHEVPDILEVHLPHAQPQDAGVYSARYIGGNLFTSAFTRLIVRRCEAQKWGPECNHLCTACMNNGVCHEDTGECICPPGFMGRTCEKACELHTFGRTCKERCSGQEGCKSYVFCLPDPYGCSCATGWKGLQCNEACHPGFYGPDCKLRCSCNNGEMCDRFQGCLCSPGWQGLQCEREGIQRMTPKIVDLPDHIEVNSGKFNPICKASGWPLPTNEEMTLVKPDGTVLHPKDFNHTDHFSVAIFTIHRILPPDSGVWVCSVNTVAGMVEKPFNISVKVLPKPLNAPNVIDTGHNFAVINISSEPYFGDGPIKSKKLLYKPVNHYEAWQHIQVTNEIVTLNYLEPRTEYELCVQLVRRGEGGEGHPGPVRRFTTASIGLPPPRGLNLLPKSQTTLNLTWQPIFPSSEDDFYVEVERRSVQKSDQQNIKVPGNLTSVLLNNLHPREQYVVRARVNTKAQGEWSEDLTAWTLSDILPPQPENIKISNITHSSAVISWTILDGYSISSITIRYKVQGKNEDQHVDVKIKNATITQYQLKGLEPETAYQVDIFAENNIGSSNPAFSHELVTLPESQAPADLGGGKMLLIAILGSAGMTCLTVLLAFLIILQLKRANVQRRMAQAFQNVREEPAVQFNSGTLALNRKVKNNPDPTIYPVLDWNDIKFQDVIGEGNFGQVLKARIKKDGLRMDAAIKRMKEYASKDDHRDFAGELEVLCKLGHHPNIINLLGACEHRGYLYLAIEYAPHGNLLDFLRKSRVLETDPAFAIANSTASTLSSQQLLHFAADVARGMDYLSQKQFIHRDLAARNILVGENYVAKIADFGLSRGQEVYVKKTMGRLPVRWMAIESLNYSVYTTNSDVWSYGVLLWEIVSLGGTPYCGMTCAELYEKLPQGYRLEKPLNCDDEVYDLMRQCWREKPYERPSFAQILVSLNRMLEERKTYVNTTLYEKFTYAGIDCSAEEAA

In the case of `CNC(=O)c1ccc2c(c1)C(=O)c1ccc(Nc3ccc(F)c(NC(=O)C4CC4)c3)cc1CC2` [Compound 2015], the remaining activity at 0.2 µM (340 wild-type kinases [1]; 0.2 µM 2015, read-out: PAK7 residual activity) is reported as 97.1%, the remaining activity at 1 µM (340 wild-type kinases [1]; 1 µM 2015, read-out: PAK7 residual activity) is reported as 84.3% and the remaining activity at 0.2 µM (340 wild-type kinases [1]; PAK7, 0.2 µM, read-out: residual activity) is reported as 97.1%. The remaining activity at 1 µM (340 wild-type kinases [1]; PAK7, 1 µM, read-out: residual activity) was 84.3%, the remaining activity at 0.2 µM (340 wild-type kinases [2]; 0.2 µM 2015, read-out: CDC42BPB residual activity) was 101% and the remaining activity at 1 µM (340 wild-type kinases [2]; 1 µM 2015, read-out: CDC42BPB residual activity) was 93.2%. The remaining activity at 0.2 µM (340 wild-type kinases [2]; CDC42BPB, 0.2 µM, read-out: residual activity) was 101%, the remaining activity at 1 µM (340 wild-type kinases [2]; CDC42BPB, 1 µM, read-out: residual activity) was 93.2% and the remaining activity at 0.2 µM (340 wild-type kinases [3]; 0.2 µM 2015, read-out: EIF2AK2 residual activity) was 84.5%. For the same compound, the remaining activity at 1 µM (340 wild-type kinases [3]; 1 µM 2015, read-out: EIF2AK2 residual activity) was 85.2%, the remaining activity at 0.2 µM (340 wild-type kinases [3]; EIF2AK2, 0.2 µM, read-out: residual activity) was 84.5% and the remaining activity at 1 µM (340 wild-type kinases [3]; EIF2AK2, 1 µM, read-out: residual activity) was 85.2%. The remaining activity at 0.2 µM (340 wild-type kinases [4]; 0.2 µM 2015, read-out: STK17A residual activity) was 109%, the remaining activity at 1 µM (340 wild-type kinases [4]; 1 µM 2015, read-out: STK17A residual activity) was 97.8% and the remaining activity at 0.2 µM (340 wild-type kinases [4]; STK17A, 0.2 µM, read-out: residual activity) was 109%. For the same compound, the remaining activity at 1 µM (340 wild-type kinases [4]; STK17A, 1 µM, read-out: residual activity) was 97.8%, the remaining activity at 0.2 µM (340 wild-type kinases [5]; 0.2 µM 2015, read-out: DAPK3 residual activity) was 110% and the remaining activity at 1 µM (340 wild-type kinases [5]; 1 µM 2015, read-out: DAPK3 residual activity) was 115%. The remaining activity at 0.2 µM (340 wild-type kinases [5]; DAPK3, 0.2 µM, read-out: residual activity) was 110%, the remaining activity at 1 µM (340 wild-type kinases [5]; DAPK3, 1 µM, read-out: residual activity) was 115% and the remaining activity at 0.2 µM (340 wild-type kinases [6]; 0.2 µM 2015, read-out: p38delta residual activity) was 101%. It also gave a remaining activity at 1 µM (340 wild-type kinases [6]; 1 µM 2015, read-out: p38delta residual activity) of 90.6%, a remaining activity at 0.2 µM (340 wild-type kinases [6]; p38delta, 0.2 µM, read-out: residual activity) of 101% and a remaining activity at 1 µM (340 wild-type kinases [6]; p38delta, 1 µM, read-out: residual activity) of 90.6%. For the same compound, the remaining activity at 0.2 µM (340 wild-type kinases [7]; 0.2 µM 2015, read-out: TIE2 residual activity) was 120%, the remaining activity at 1 µM (340 wild-type kinases [7]; 1 µM 2015, read-out: TIE2 residual activity) was 90.4% and the remaining activity at 0.2 µM (340 wild-type kinases [7]; TIE2, 0.2 µM, read-out: residual activity) was 120%. It also gave a remaining activity at 1 µM (340 wild-type kinases [7]; TIE2, 1 µM, read-out: residual activity) of 90.5%, a remaining activity at 0.2 µM (340 wild-type kinases [8]; 0.2 µM 2015, read-out: IGF1R residual activity) of 109% and a remaining activity at 1 µM (340 wild-type kinases [8]; 1 µM 2015, read-out: IGF1R residual activity) of 97.4%. For the same compound, the remaining activity at 0.2 µM (340 wild-type kinases [8]; IGF1R, 0.2 µM, read-out: residual activity) was 109%, the remaining activity at 1 µM (340 wild-type kinases [8]; IGF1R, 1 µM, read-out: residual activity) was 97.4% and the PKCbeta2 residual activity (340 wild-type kinases [9]; 0.2 µM 2015) was 102.668%. It also gave a PKCbeta2 residual activity (340 wild-type kinases [9]; 1 µM 2015) of 108.52%, a residual activity (340 wild-type kinases [9]; 0.2 µM) of 80.31% and a residual activity (340 wild-type kinases [9]; 1 µM) of 88.78%. For the same compound, the “effect on p38α and p38β (in words)” value (340 wild-type kinases [9]; panel of 340 kinases, 1 µM and 0.2 µM) was “specifically inhibited”, the remaining activity at 0.2 µM (340 wild-type kinases [10]; 0.2 µM 2015, read-out: PBK residual activity) was 96.5% and the remaining activity at 1 µM (340 wild-type kinases [10]; 1 µM 2015, read-out: PBK residual activity) was 79.7%. For the same compound, the remaining activity at 0.2 µM (340 wild-type kinases [10]; PBK, 0.2 µM, read-out: residual activity) was 96.5%, the remaining activity at 1 µM (340 wild-type kinases [10]; PBK, 1 µM, read-out: residual activity) was 79.7% and the remaining activity at 0.2 µM (340 wild-type kinases [11]; 0.2 µM 2015, read-out: SIK3 residual activity) was 101%. For the same compound, the remaining activity at 1 µM (340 wild-type kinases [11]; 1 µM 2015, read-out: SIK3 residual activity) was 95.7%, the remaining activity at 0.2 µM (340 wild-type kinases [11]; SIK3, 0.2 µM, read-out: residual activity) was 101% and the remaining activity at 1 µM (340 wild-type kinases [11]; SIK3, 1 µM, read-out: residual activity) was 95.7%. For the same compound, the remaining activity at 0.2 µM (340 wild-type kinases [12]; 0.2 µM 2015, read-out: FGFR1 residual activity) was 105%, the remaining activity at 1 µM (340 wild-type kinases [12]; 1 µM 2015, read-out: FGFR1 residual activity) was 111% and the remaining activity at 0.2 µM (340 wild-type kinases [12]; FGFR1, 0.2 µM, read-out: residual activity) was 105%. For the same compound, the remaining activity at 1 µM (340 wild-type kinases [12]; FGFR1, 1 µM, read-out: residual activity) was 111%, the remaining activity at 0.2 µM (340 wild-type kinases [13]; 0.2 µM 2015, read-out: PKCgamma residual activity) was 109% and the remaining activity at 1 µM (340 wild-type kinases [13]; 1 µM 2015, read-out: PKCgamma residual activity) was 86.6%. It also gave a remaining activity at 0.2 µM (340 wild-type kinases [13]; PKCgamma, 0.2 µM, read-out: residual activity) of 109% and a remaining activity at 1 µM (340 wild-type kinases [13]; PKCgamma, 1 µM, read-out: residual activity) of 86.6%.

Reference: paper PMC11864979, “First-in-class ultralong-target-residence-time p38α inhibitors as a mitosis-targeted therapy for colorectal cancer” (Nature Cancer, 2025)
